Where a name gives a salt, the structure may show the parent alone. Read-outs that look alike come from different tables or passages of the source.
Key:
Type in all cases: biochemical
Caspase-6 = biological target: T1, Caspase-6 (Homo sapiens, UniProt P55212); experiment: Caspase-6 inhibitor screening assay (BioVision kit, VEID-AFC); conditions: for inhibition at 10 µM: read-out: % Inhibition at 10 uM Casp6; for inhibition at 100 µM: read-out: % Inhibition at 100 uM Casp6; for IC50: read-out: IC50 Casp6
T1 construct: mixing the compounds with the respective active caspases; purchased BioVision K156-100
T1 sequence (P55212 24-179 limits assumed): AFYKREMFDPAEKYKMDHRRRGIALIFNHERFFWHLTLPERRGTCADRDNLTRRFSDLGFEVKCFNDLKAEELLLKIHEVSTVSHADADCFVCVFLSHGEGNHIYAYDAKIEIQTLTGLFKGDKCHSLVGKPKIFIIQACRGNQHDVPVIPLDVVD
T1 sequence (P55212 194-293 limits assumed): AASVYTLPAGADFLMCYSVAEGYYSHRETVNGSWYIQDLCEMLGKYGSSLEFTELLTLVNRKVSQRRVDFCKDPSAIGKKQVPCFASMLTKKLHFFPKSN
How it was run: (§1)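 Each caspase cleaved its own AFC-labelled peptide substrate, and released AFC was read by fluorescence. % inhibition came from RFU against an uninhibited control.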

Caspase-4 = biological target: T2, Caspase-4 (Homo sapiens, UniProt P49662); experiment: Caspase-4 inhibitor screening assay (BioVision kit, LEVD-AFC); conditions: for inhibition at 10 µM: read-out: % Inhibition at 10 uM Casp4; for inhibition at 100 µM: read-out: % Inhibition at 100 uM Casp4; for IC50: read-out: IC50 Casp4
T2 construct: mixing the compounds with the respective active caspases; purchased BioVision K154-100
T2 sequence (P49662 81-270 limits assumed): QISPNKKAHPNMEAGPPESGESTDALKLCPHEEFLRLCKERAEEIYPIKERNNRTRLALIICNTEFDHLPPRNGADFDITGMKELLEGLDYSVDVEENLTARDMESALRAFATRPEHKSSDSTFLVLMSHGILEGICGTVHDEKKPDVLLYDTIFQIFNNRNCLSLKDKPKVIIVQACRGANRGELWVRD
T2 sequence (P49662 290-377 limits assumed): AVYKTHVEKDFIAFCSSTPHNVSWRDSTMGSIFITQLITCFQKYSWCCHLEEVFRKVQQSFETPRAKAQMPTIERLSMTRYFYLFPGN
How it was run: as §1

Caspase-2 = biological target: T3, Caspase-2 (Homo sapiens, UniProt P42575); experiment: Caspase-2 inhibitor screening assay (BioVision kit, VDVAD-AFC); conditions: for inhibition at 10 µM: read-out: % Inhibition at 10 uM Casp2; for inhibition at 100 µM: read-out: % Inhibition at 100 uM Casp2; for IC50: read-out: IC50 Casp2
T3 construct: mixing the compounds with the respective active caspases; purchased BioVision K152-100
T3 sequence (P42575 170-325 limits assumed): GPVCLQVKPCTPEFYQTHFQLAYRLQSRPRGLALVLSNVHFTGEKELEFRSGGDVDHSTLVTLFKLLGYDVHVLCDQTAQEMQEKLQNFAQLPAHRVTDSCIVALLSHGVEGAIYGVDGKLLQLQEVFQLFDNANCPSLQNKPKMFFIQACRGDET
T3 sequence (P42575 334-452 limits assumed): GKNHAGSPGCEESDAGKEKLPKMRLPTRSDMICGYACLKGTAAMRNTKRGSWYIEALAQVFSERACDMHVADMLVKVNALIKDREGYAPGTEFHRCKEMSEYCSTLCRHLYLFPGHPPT
Procedure: The efficacy of an array of compounds as an inhibitor of the activity of Caspases 1 through 10 were assessed by using the respective Caspase Inhibitor Drug Screening Kits (Caspase-1 Catalog #: K151-100, Caspase-2 Catalog #: K152-100, Caspase-3 Catalog #: K153-100, Caspase-4 Catalog #: K154-100, Caspase-5 Catalog #: K155-100, Caspase-6 Catalog #: K156-100, Caspase-7 Catalog #: K157-100, Caspase-8 Catalog #: K158-100, Caspase-9 Catalog #: K159-100, Caspase-10 Catalog #: K160-100, BioVision) following the instructions of the manufacturer. […] Active caspases cleaved their respective synthetic substrates to release free AFC, which was then quantified by fluorometry.
Briefly, the compounds were first tested at 2 concentrations (10 uM and 100 uM final) to determine if there is a hit. […] Each condition was tested in duplicates. […] For some samples, a smaller range of concentrations was tested depending on the % Inhibition results at 10 uM and 100 uM. Results were summarized in Tables 2, 3, and 4 herein after. Table 2 represents the IC50 values (uM) of the test compounds as inhibitors of the activity of the various caspases.
(*) RFU (no inhibitor control)—RFU (compound at a specific concentration)
RFU (no inhibitor control)

Caspase-8 = biological target: T4, Caspase-8 (Homo sapiens, UniProt Q14790); experiment: Caspase-8 inhibitor screening assay (BioVision kit, IETD-AFC); conditions: for inhibition at 10 µM: read-out: % Inhibition at 10 uM Casp8; for inhibition at 100 µM: read-out: % Inhibition at 100 uM Casp8
T4 construct: mixing the compounds with the respective active caspases; purchased BioVision K158-100
How it was run: as §1

Caspase-10 = biological target: T5, Caspase-10 (Homo sapiens, UniProt Q92851); experiment: Caspase-10 inhibitor screening assay (BioVision kit, AEVD-AFC); conditions: for inhibition at 10 µM: read-out: % Inhibition at 10 uM Casp10; for inhibition at 100 µM: read-out: % Inhibition at 100 uM Casp10
T5 construct: mixing the compounds with the respective active caspases; purchased BioVision K160-100
T5 sequence (Q92851 220-415 limits assumed): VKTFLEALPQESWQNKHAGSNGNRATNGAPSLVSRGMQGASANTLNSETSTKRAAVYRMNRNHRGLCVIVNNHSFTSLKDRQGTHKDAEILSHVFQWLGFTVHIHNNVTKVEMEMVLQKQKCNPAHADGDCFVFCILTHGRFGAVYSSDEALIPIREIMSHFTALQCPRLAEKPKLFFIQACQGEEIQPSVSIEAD
T5 sequence (Q92851 416-521 limits assumed): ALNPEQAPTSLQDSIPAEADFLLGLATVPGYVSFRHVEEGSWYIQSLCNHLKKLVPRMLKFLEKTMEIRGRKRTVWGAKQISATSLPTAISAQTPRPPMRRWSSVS
How it was run: as §1

Caspase-9 = biological target: T6, Caspase-9 (Homo sapiens, UniProt P55211); experiment: Caspase-9 inhibitor screening assay (BioVision kit, LEHD-AFC); conditions: for inhibition at 10 µM: read-out: % Inhibition at 10 uM Casp9; for inhibition at 100 µM: read-out: % Inhibition at 100 uM Casp9; for IC50: read-out: IC50 Casp9
T6 construct: purchased BioVision K159-100
T6 sequence (P55211 1-315 limits assumed): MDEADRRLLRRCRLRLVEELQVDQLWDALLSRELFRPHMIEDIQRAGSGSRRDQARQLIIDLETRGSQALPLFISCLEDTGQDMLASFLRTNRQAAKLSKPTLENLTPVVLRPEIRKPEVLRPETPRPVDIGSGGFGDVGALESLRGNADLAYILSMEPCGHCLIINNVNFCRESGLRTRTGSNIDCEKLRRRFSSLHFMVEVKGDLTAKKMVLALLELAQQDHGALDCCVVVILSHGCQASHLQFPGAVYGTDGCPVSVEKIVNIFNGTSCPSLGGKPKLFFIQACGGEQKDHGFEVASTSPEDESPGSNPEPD
T6 sequence (P55211 331-416 limits assumed): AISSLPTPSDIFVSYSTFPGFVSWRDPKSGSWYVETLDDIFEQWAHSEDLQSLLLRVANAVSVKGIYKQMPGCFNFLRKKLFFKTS
How it was run: as §1

T4 sequence (Q14790 217-374 limits assumed): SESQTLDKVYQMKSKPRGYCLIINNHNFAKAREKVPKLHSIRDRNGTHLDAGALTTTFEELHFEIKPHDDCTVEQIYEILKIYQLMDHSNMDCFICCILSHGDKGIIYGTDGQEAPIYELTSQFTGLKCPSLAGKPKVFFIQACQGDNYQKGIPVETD
T4 sequence (Q14790 385-479 limits assumed): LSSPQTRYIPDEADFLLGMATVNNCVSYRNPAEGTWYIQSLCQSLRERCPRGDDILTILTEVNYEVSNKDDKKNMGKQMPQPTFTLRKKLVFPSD

SMILES | inhibition at 10 µM (Caspase-6) | inhibition at 100 µM (Caspase-6) | IC50 (Caspase-6) | inhibition at 10 µM (Caspase-4) | inhibition at 100 µM (Caspase-4) | IC50 (Caspase-4) | inhibition at 10 µM (Caspase-2) | inhibition at 100 µM (Caspase-2) | IC50 (Caspase-2) | inhibition at 10 µM (Caspase-8) | inhibition at 100 µM (Caspase-8) | IC50 (Caspase-8; read-out: IC50 Casp8) | inhibition at 10 µM (Caspase-10) | inhibition at 100 µM (Caspase-10) | IC50 (Caspase-10; read-out: IC50 Casp10) | inhibition at 10 µM (Caspase-9) | inhibition at 100 µM (Caspase-9) | IC50 (Caspase-9) | IC50 (Caspase-8; read-out: potency (IC50) against caspase-8) | IC50 (Caspase-10; read-out: potency (IC50) against caspase-10)
CS(=O)(=O)/C=C/[C@H](CC(=O)O)NC(=O)[C@H]1CCCN1C(=O)[C@@H](NC(=O)[C@H](CC(=O)O)NC(=O)OCc1ccccc1)c1ccccc1 [Compound 30, Z-Asp-Phenylglycine-Pro-Asp-methyl vinyl sulfone] | 0% | 2% | > 100 µM | 50% | 100% | 9.94 µM | 11% | 66% | 53.7 µM | 22% | 79% | 32.5 µM | 43% | 92% | 12.9 µM | 48% | 92% | 10.8 µM | – | –
CC(C)(C)[C@@H](NC(=O)[C@H](CC(=O)O)NC(=O)OCc1ccccc1)C(=O)N1CC[C@@H]1C(=O)N[C@H](/C=C/S(C)(=O)=O)CC(=O)O [Compound 32, Z-Asp-t-Leu-(Azetidine-2-carbonyl)-Asp-methyl vinyl sulfone] | 0% | 1% | > 100 µM | 76% | 100% | 5.63 µM | 43% | 86% | 13.1 µM | 69% | 98% | 4.08 µM | 97% | 100% | 0.42 µM | 91% | 100% | 1.12 µM | – | –
CC(C)[C@H](NC(=O)[C@H](CCC(=O)O)NC(=O)[C@H](Cc1c[nH]c2ccccc12)NC(=O)OCc1ccccc1)C(=O)N[C@H](/C=C/S(C)(=O)=O)CC(=O)O [Compound 40, Z-Trp-Glu-Val-Asp-methyl vinyl sulfone] | 7% | 51% | ~100 µM | 100% | 100% | 0.18 µM | 1% | 10% | > 100 µM | 61% | 96% | 5.93 µM | 80% | 99% | 3.29 µM | 87% | 99% | 1.74 µM | – | –
CS(=O)(=O)/C=C/[C@H](CC(=O)O)NC(=O)[C@@H](N)CCC(=O)O [Compound 22, Glu-Asp methylsulfone] | 1% | 0% | > 100 µM | 0% | 0% | > 100 µM | 12% | 13% | > 100 µM | 3% | 7% | > 100 µM | 15% | 14% | > 100 µM | 2% | 0% | > 100 µM | – | –

Now from value to compound:

inhibition at 10 µM (Caspase-6) | inhibition at 100 µM (Caspase-6) | IC50 (Caspase-6) | inhibition at 10 µM (Caspase-4) | inhibition at 100 µM (Caspase-4) | IC50 (Caspase-4) | inhibition at 10 µM (Caspase-2) | inhibition at 100 µM (Caspase-2) | IC50 (Caspase-2) | inhibition at 10 µM (Caspase-8) | inhibition at 100 µM (Caspase-8) | IC50 (Caspase-8; read-out: IC50 Casp8) | inhibition at 10 µM (Caspase-10) | inhibition at 100 µM (Caspase-10) | IC50 (Caspase-10; read-out: IC50 Casp10) | inhibition at 10 µM (Caspase-9) | inhibition at 100 µM (Caspase-9) | IC50 (Caspase-9) | IC50 (Caspase-8; read-out: potency (IC50) against caspase-8) | IC50 (Caspase-10; read-out: potency (IC50) against caspase-10) | SMILES
0% | 5% | > 100 µM | 0% | 0% | > 100 µM | 0% | 3% | > 100 µM | 9% | 10% | > 100 µM | 2% | 0% | > 100 µM | 0% | 6% | > 100 µM | – | – | CC(C)[C@H](NC(=O)[C@@H](NC(=O)[C@H](CC(=O)O)NC(=O)OCc1ccccc1)c1ccccc1)C(=O)N[C@H](/C=C/S(C)(=O)=O)CCC(=O)O [Compound 84, Z-Asp-Phg-Val-Glu methyl vinyl sulfone]
3% | 6% | > 100 µM | 100% | 100% | 0.6 µM | 4% | 10% | > 100 µM | 36% | 89% | 21.1 µM | 59% | 97% | 8.05 µM | 53% | 92% | 8.9 µM | – | – | CCOC(=O)/C=C/[C@H](CC(=O)O)NC(=O)[C@H]1CCCN1C(=O)[C@@H](NC(=O)c1ccc2ccccc2n1)C(C)(C)C [Compound 118, 2-Quinoline carbonyl-t-Leu-Pro-Asp Ethyl Vinyl Ester]
– | – | 0.48 µM | – | – | 0.77 µM | – | – | > 100 µM | – | – | 0.08 µM | – | – | – | – | – | > 100 µM | 0.079 µM | 0.002 µM | CCOC(=O)/C=C/[C@H](CC(=O)O)NC(=O)[C@@H](NC(=O)[C@H](CCC(=O)O)NC(=O)[C@@H](NC(=O)OCc1ccccc1)C(C)C)c1ccccc1 [Compound 126, Z-Val-Glu-Phg-Asp-Ethyl Vinyl ester]
0% | 0% | > 100 µM | 0% | 0% | > 100 µM | 0% | 3% | > 100 µM | 0% | 7% | > 100 µM | 4% | 15% | > 100 µM | 0% | 0% | > 100 µM | – | – | CCOC(=O)/C=C/[C@@H](N)CC(=O)O [Compound 44, Asp ethyl vinyl ester tosyl salt]

Source: US10975119B2, “Selective cysteine protease inhibitors and uses thereof” (Genesis Technologies Limited, priority 2011, dated 2021)
